Results from the supplement of paper PMC10307832.

Key:
Experiment in all cases: relative viability (nuclei count vs DMSO), 5 days (fraction); higher = more cells survive
Bleomycin + Linsitinib = compound: CC1=C(N=C(N=C1N)[C@H](CC(=O)N)NC[C@@H](C(=O)N)N)C(=O)N[C@@H]([C@H](C2=CN=CN2)OC3C(C(C(C(O3)CO)O)O)OC4C(C(C(C(O4)CO)O)OC(=O)N)O)C(=O)N[C@H](C)[C@H]([C@H](C)C(=O)N[C@@H]([C@@H](C)O)C(=O)NCCC5=NC(=CS5)C6=NC(=CS6)C(=O)NCCC[S+](C)C)O [Bleomycin] + C[C@]1(O)C[C@@H](c2nc(-c3ccc4ccc(-c5ccccc5)nc4c3)c3c(N)nccn32)C1 [Linsitinib] (partner 1 µM); conditions: main component drawn
Method in brief: (§1)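 Relative viability was taken as the ratio of nuclei in treated wells to nuclei in vehicle wells. Lung cancer cell lines in 1536-well plates received compounds by pin tool one day after seeding, either one drug alone or a fixed anchor-drug dose plus five library-drug doses (not always all listed) in √10 steps. Nuclei were counted on 4× images after 5 days of treatment, and values are medians of duplicate plates.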

Bleomycin + OSI-027 = compound: CC1=C(N=C(N=C1N)[C@H](CC(=O)N)NC[C@@H](C(=O)N)N)C(=O)N[C@@H]([C@H](C2=CN=CN2)OC3C(C(C(C(O3)CO)O)O)OC4C(C(C(C(O4)CO)O)OC(=O)N)O)C(=O)N[C@H](C)[C@H]([C@H](C)C(=O)N[C@@H]([C@@H](C)O)C(=O)NCCC5=NC(=CS5)C6=NC(=CS6)C(=O)NCCC[S+](C)C)O [Bleomycin] + COc1cccc2cc(-c3nc([C@H]4CC[C@H](C(=O)O)CC4)n4ncnc(N)c34)[nH]c12 [OSI-027] (partner 0.5 µM); conditions: main component drawn
Method in brief: as §1

Etoposide + Luminespib = compound: COc1cc([C@@H]2c3cc4c(cc3[C@@H](O[C@@H]3O[C@@H]5CO[C@@H](C)O[C@H]5[C@H](O)[C@H]3O)[C@H]3COC(=O)[C@H]23)OCO4)cc(OC)c1O [Etoposide] + CCNC(=O)c1noc(-c2cc(C(C)C)c(O)cc2O)c1-c1ccc(CN2CCOCC2)cc1 [Luminespib] (partner 0.01 µM)
Method in brief: as §1

Bleomycin + Phenformin = compound: CC1=C(N=C(N=C1N)[C@H](CC(=O)N)NC[C@@H](C(=O)N)N)C(=O)N[C@@H]([C@H](C2=CN=CN2)OC3C(C(C(C(O3)CO)O)O)OC4C(C(C(C(O4)CO)O)OC(=O)N)O)C(=O)N[C@H](C)[C@H]([C@H](C)C(=O)N[C@@H]([C@@H](C)O)C(=O)NCCC5=NC(=CS5)C6=NC(=CS6)C(=O)NCCC[S+](C)C)O [Bleomycin] + N=C(N)NC(=N)NCCc1ccccc1 [Phenformin] (partner 250 µM); conditions: main component drawn
Method in brief: as §1

Row | Cell Line | relative viability (Bleomycin + Linsitinib; first compound 0.01 µM) | relative viability (Bleomycin + Linsitinib; first compound 0.03162 µM) | relative viability (Bleomycin + Linsitinib; first compound 0.1 µM) | relative viability (Bleomycin + Linsitinib; first compound 0.3162 µM) | relative viability (Bleomycin + Linsitinib; first compound 1 µM) | relative viability (Bleomycin + OSI-027; first compound 0.01 µM) | relative viability (Bleomycin + OSI-027; first compound 0.03162 µM) | relative viability (Bleomycin + OSI-027; first compound 0.1 µM) | relative viability (Bleomycin + OSI-027; first compound 0.3162 µM) | relative viability (Bleomycin + OSI-027; first compound 1 µM) | relative viability (Etoposide + Luminespib; first compound 0.01 µM) | relative viability (Etoposide + Luminespib; first compound 0.03162 µM) | relative viability (Etoposide + Luminespib; first compound 0.1 µM) | relative viability (Etoposide + Luminespib; first compound 0.3162 µM) | relative viability (Etoposide + Luminespib; first compound 1 µM) | relative viability (Bleomycin + Phenformin; first compound 0.01 µM) | relative viability (Bleomycin + Phenformin; first compound 0.03162 µM) | relative viability (Bleomycin + Phenformin; first compound 0.1 µM) | relative viability (Bleomycin + Phenformin; first compound 0.3162 µM) | relative viability (Bleomycin + Phenformin; first compound 1 µM)
1 | NCI-H3122 | 1.05 | 1.03 | 1.01 | 0.744 | 0.457 | 0.917 | 1.03 | 0.76 | 0.262 | 0.261 | 0.072 | 0.0992 | 0.0664 | 0.116 | 0.076 | 0.341 | 0.379 | 0.5 | 0.194 | 0.198
2 | NCI-H358 | 0.674 | 0.738 | 0.666 | 0.455 | 0.39 | 0.73 | 0.67 | 0.662 | 0.335 | 0.185 | 0.243 | 0.327 | 0.209 | 0.179 | 0.095 | 0.343 | 0.352 | 0.325 | 0.171 | 0.147
3 | NCI-H1944 | 0.781 | 0.815 | 0.5 | 0.507 | 0.238 | 0.279 | 0.278 | 0.224 | 0.179 | 0.151 | 0.519 | 0.936 | 0.597 | 0.404 | 0.247 | 0.145 | 0.144 | 0.141 | 0.116 | 0.102
4 | EPLC-272H | 1.21 | 1.06 | 1.08 | 1.45 | 0.196 | 0.258 | 0.257 | 0.21 | 0.147 | 0.149 | 0.185 | 0.238 | 0.207 | 0.265 | 0.12 | 0.247 | 0.286 | 0.228 | 0.173 | 0.116
5 | NCI-H1915 | 0.891 | 1.01 | 0.813 | 0.428 | 0.216 | 0.434 | 0.429 | 0.373 | 0.21 | 0.144 | 0.714 | 0.634 | 0.808 | 0.617 | 0.394 | 0.301 | 0.301 | 0.254 | 0.15 | 0.14
6 | NCI-H647 | 0.649 | 0.487 | 0.321 | 0.13 | 0.102 | 0.195 | 0.184 | 0.184 | 0.0871 | 0.0587 | 0.134 | 0.164 | 0.164 | 0.134 | 0.0949 | 0.209 | 0.207 | 0.148 | 0.078 | 0.0537
7 | NCI-H441 |  | 0.57 | 0.564 | 0.209 | 0.255 | 0.404 | 0.735 | 0.534 | 0.383 | 0.283 | 0.307 | 0.28 | 0.331 | 0.259 | 0.256 | 0.782 | 0.906 | 0.807 | 0.376 | 0.292
8 | NCI-H23 | 0.292 | 0.253 | 0.225 | 0.152 | 0.137 | 0.361 | 0.401 | 0.272 | 0.141 | 0.145 | 0.23 | 0.204 | 0.207 | 0.212 | 0.246 | 0.518 | 0.586 | 0.357 | 0.207 | 0.17
9 | NCI-H650 | 0.585 | 0.791 | 0.582 | 0.328 | 0.199 | 0.433 | 0.546 | 0.481 | 0.429 | 0.234 | 0.695 | 0.895 | 0.336 | 0.179 | 0.174 | 0.342 | 0.399 | 0.384 | 0.327 | 0.202
10 | SK-MES-1 | 0.923 | 0.974 | 0.819 | 0.287 | 0.216 | 0.506 | 0.588 | 0.57 | 0.262 | 0.16 | 0.695 | 0.64 | 0.733 | 0.357 | 0.231 | 0.58 | 0.617 | 0.546 | 0.217 | 0.174
11 | NCI-H2085 | 0.678 | 0.823 | 0.632 | 0.346 | 0.363 | 0.832 | 0.761 | 0.574 | 0.317 | 0.44 | 0.34 | 0.514 | 0.451 | 0.338 | 0.265 | 0.599 | 0.595 | 0.55 | 0.329 | 0.306
12 | NCI-H838 | 0.652 | 0.314 | 0.191 | 0.189 | 0.159 | 0.347 | 0.269 | 0.186 | 0.173 | 0.174 | 0.394 | 0.31 | 0.272 | 0.162 | 0.194 | 0.381 | 0.297 | 0.185 | 0.188 | 0.153
13 | NCI-H460 | 0.448 | 0.356 | 0.158 | 0.0344 | 0.0252 | 0.373 | 0.334 | 0.165 | 0.038 | 0.0308 | 0.0412 | 0.0382 | 0.0395 | 0.0281 | 0.0302 | 0.287 | 0.275 | 0.124 | 0.0345 | 0.0288
14 | LOU-NH91 | 0.78 | 0.611 | 0.522 | 0.37 | 0.317 | 0.667 | 0.564 | 0.555 | 0.503 | 0.306 | 0.318 | 0.38 | 0.306 | 0.311 | 0.284 | 0.686 | 0.488 | 0.515 | 0.383 | 0.343
